ChEMBL document CHEMBL4406827, “Novel 4-quinoline-thiosemicarbazone derivatives: Synthesis, antiproliferative activity, in vitro and in silico biomacromolecule interaction studies and topoisomerase inhibition” (Eur J Med Chem, 2019)
Active and inactive are the calls of the source. The rule behind the calls is not given here.

Columns and labels:
[1] = Cytotoxicity against mouse RAW264.7 cells assessed as reduction in cell viability incubated for 48 hrs by MTT assay; type: cell-based
Albumin [2] = molecular target: T1, Albumin (Bos taurus, UniProt P02769); test: Binding affinity to bovine serum albumin assessed as Stem-Volmer quenching constant incubated for 10 mins by fluorescence emission spectrum analysis; type: ADME; details: cattle, isolated protein
Albumin [3] = molecular target: T1, Albumin; test: Binding affinity to bovine serum albumin assessed as binding constant incubated for 10 mins by UV-Vis absorption spectroscopic method; type: ADME; details: cattle, isolated protein
MCF7 = test: Cytotoxicity against human MCF7 cells assessed as reduction in cell viability incubated for 48 hrs by MTT assay; type: functional, cell-based; details: MCF7, 48 h
Calf thymus DNA [4] = test: Binding affinity to calf thymus DNA assessed as DNA spectral changes at 30 uM incubated for 10 mins by circular dichroism method; type: nucleic-acid assay; details: Bos taurus
[5] = molecular target: DNA topoisomerase 2-alpha (Homo sapiens) (UniProt P11388); test: Inhibition of recombinant human topoisomerase 2alpha using supercoiled pUC19 plasmid DNA as substrate at 10 uM incubated for 45 mins by ethidium bromide dye based agarose gel electrophoresis method
[6] = Selectivity index, ratio of CC50 for mouse RAW264.7 cells to ratio of IC50 for human MCF7 cells; type: toxicity; details: RAW264.7 cells and MCF7 cells, read-out: Ratio CC50/IC50
Calf thymus DNA [7] = test: Binding affinity to calf thymus DNA assessed as hypochromicity at 30 uM incubated for 10 mins by UV-Vis absorption spectroscopic method relative to control; type: nucleic-acid assay; details: Bos taurus
Salmon testes DNA = test: Binding affinity to salmon sperm […] DNA assessed as DNA intercalation by measuring increase in viscosity at 12 to 60 uM by viscometric method; type: nucleic-acid assay; details: Salmonidae
Calf thymus DNA [8] = test: Binding affinity to calf thymus DNA assessed as binding constant incubated for 10 mins by UV-Vis absorption spectroscopic method; type: nucleic-acid assay; details: Bos taurus
[9] = Selectivity index, ratio of CC50 for mouse RAW264.7 cells to ratio of IC50 for human T47D cells; type: toxicity; details: RAW264.7 cells and T47D cells, read-out: Ratio CC50/IC50
Albumin [10] = molecular target: T1, Albumin; test: Binding affinity to bovine serum albumin assessed as hyperchromicity at 5 to 40 uM incubated for 10 mins by UV-Vis absorption spectroscopic method relative to control; type: ADME; details: cattle, isolated protein
T47D = test: Cytotoxicity against human T47D cells assessed as reduction in cell viability incubated for 48 hrs by MTT assay; type: functional, cell-based
Albumin [11] = molecular target: T1, Albumin; test: Binding affinity to bovine serum albumin assessed as hypochromicity at 5 to 40 uM by fluorescence emission spectrum analysis method relative to control; type: ADME; details: cattle, isolated protein
Albumin [12] = molecular target: T1, Albumin; test: Binding affinity to bovine serum albumin assessed as hypsochromic shift at 5 to 40 uM by fluorescence emission spectrum analysis method; type: ADME; details: cattle, isolated protein
Calf thymus DNA [13] = test: Binding affinity to calf thymus DNA assessed as fold change in hypochromicity at 10 uM by fluorescence emission spectrum analysis relative to control; type: nucleic-acid assay; details: Bos taurus
Calf thymus DNA [14] = test: Binding affinity to calf thymus DNA assessed as DNA spectral changes by measuring increase in negative band at 245 nm at 30 uM incubated for 10 mins by circular dichroism method; type: nucleic-acid assay; details: Bos taurus
Calf thymus DNA [15] = test: Binding affinity to calf thymus DNA assessed as bathochromic shift at 30 uM incubated for 10 mins by UV-Vis absorption spectroscopic method; type: nucleic-acid assay; details: Bos taurus
Albumin [16] = molecular target: T1, Albumin; test: Binding affinity to bovine serum albumin assessed as hypsochromic shift at 5 to 40 uM incubated for 10 mins by UV-Vis absorption spectroscopic method relative to control; type: ADME; details: cattle, isolated protein
Calf thymus DNA [17] = test: Binding affinity to calf thymus DNA assessed as hyperchromicity at 30 uM incubated for 10 mins by UV-Vis absorption spectroscopic method relative to control; type: nucleic-acid assay; details: Bos taurus
Calf thymus DNA [18] = test: Binding affinity to calf thymus DNA assessed as hypsochromic shift at 10 uM by fluorescence emission spectrum analysis; type: nucleic-acid assay; details: Bos taurus
Calf thymus DNA [19] = test: Binding affinity to calf thymus DNA assessed as DNA spectral changes by measuring decrease in positive band at 274 nm at 30 uM incubated for 10 mins by circular dichroism method; type: nucleic-acid assay; details: Bos taurus
Calf thymus DNA [20] = test: Binding affinity to calf thymus DNA assessed as fold change in hyperchromicity at 10 uM by fluorescence emission spectrum analysis relative to control; type: nucleic-acid assay; details: Bos taurus
Calf thymus DNA [21] = test: Binding affinity to calf thymus DNA assessed as hypsochromic shift at 30 uM incubated for 10 mins by UV-Vis absorption spectroscopic method; type: nucleic-acid assay; details: Bos taurus

DNA topoisomerase 2-alpha (Homo sapiens), sequence (P11388 whole entry): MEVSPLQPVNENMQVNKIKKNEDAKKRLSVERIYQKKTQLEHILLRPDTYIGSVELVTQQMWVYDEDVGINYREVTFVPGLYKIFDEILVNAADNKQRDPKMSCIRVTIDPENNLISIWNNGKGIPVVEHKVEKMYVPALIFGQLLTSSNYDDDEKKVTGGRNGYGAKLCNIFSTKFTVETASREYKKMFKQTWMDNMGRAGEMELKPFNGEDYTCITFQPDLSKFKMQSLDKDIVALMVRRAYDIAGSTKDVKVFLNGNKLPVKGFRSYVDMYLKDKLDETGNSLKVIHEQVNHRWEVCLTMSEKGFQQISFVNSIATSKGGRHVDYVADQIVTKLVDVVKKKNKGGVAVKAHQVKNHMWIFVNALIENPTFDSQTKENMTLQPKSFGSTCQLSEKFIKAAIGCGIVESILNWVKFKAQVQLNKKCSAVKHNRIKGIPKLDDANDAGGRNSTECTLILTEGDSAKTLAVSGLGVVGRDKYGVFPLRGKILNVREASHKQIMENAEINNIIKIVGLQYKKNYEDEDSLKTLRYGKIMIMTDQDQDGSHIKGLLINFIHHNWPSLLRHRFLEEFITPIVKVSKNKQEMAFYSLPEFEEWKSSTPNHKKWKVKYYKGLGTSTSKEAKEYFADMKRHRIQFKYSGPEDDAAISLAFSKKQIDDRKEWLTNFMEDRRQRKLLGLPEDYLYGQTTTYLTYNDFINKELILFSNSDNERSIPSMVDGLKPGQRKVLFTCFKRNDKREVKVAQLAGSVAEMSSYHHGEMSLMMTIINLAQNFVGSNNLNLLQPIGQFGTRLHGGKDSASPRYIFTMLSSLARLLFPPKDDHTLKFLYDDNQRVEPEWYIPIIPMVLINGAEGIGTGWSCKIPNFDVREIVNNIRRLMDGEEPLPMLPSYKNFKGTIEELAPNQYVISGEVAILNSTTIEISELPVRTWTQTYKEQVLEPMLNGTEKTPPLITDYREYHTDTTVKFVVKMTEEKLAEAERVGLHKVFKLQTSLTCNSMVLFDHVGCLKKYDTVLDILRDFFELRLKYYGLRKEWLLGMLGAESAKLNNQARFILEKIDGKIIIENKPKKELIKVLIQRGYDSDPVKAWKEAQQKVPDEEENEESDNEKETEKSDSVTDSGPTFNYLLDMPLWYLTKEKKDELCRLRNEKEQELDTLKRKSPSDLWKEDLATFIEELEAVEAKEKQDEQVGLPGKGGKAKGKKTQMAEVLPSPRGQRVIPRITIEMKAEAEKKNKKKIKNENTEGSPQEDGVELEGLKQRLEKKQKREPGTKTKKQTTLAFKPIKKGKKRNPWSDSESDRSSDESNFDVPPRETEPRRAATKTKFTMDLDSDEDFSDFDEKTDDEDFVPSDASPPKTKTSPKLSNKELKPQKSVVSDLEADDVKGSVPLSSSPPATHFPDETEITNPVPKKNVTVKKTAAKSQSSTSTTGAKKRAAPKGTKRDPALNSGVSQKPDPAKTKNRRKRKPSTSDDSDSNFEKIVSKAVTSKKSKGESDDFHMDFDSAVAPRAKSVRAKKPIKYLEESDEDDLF
T1 sequence (P02769 whole entry): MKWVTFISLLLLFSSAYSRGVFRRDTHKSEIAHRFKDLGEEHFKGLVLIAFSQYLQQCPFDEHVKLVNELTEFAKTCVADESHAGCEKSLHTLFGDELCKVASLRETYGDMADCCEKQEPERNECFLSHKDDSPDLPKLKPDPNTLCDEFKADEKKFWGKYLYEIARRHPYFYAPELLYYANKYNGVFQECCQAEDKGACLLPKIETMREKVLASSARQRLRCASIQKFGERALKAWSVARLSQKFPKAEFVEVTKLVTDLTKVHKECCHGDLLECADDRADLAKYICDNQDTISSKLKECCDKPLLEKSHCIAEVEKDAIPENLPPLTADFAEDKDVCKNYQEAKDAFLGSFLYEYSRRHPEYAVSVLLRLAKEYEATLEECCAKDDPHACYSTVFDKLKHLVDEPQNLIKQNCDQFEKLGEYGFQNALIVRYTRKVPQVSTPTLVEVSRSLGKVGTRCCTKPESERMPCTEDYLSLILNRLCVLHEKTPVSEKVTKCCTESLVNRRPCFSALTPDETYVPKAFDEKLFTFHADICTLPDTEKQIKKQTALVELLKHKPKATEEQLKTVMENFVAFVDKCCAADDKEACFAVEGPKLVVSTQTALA

SMILES	CC50 at 48 h [1]	KSV (Albumin [2])	Kb (Albumin [3])	IC50 (MCF7)	Activity (Calf thymus DNA [4])	inhibition [5]	selectivity ratio [6]	Activity (Calf thymus DNA [7])	Activity (Salmon testes DNA)	Kb (Calf thymus DNA [8])	selectivity ratio [9]	Activity (Albumin [10])	IC50 (T47D)	Activity (Albumin [11])	Activity (Albumin [12])	fold change (FC) (Calf thymus DNA [13])	Activity (Calf thymus DNA [17])	Activity (Calf thymus DNA [18])	also measured
CNC(=O)c1cccc2c(Nc3ccc(NS(C)(=O)=O)cc3OC)c3cccc(C)c3nc12 [ASULACRINE]	31200 nM																		
S=C(NCCc1ccccc1)N/N=C\c1ccnc2ccccc12	33000 nM	4.09 ×10⁴ /M	1.08 ×10⁵ /M	1090 nM	Active	inactive	30.2	27.4%	Active	2.42 ×10⁴ /M	29.4	62.54%	1120 nM	157.14%	Active	5.53			
COc1cc(NS(C)(=O)=O)ccc1Nc1c2ccccc2nc2ccccc12 [AMSACRINE]	95500 nM			910 nM		Active	105		Active		102		940 nM						
CCc1ccc(NC(=S)N/N=C\c2ccnc3ccccc23)cc1	35700 nM	16.05 ×10⁴ /M	1.43 ×10⁵ /M	820 nM		inactive	43.6		Active	1.62 ×10⁶ /M	27.9	69.01%	1280 nM	601.57%	Active	4.65	51.4%	Active	Activity (Calf thymus DNA [14]): Active; Activity (Calf thymus DNA [15]): Active; Activity (Albumin [16]): Active; Activity (Calf thymus DNA [19]): Active
Cc1ccc(NC(=S)N/N=C\c2ccnc3ccccc23)cc1	50500 nM	8.85 ×10⁴ /M	1.39 ×10⁵ /M	980 nM	Active	inactive	51.5		Active	3.56 ×10⁵ /M	38.3	58.04%	1320 nM	287.44%	Active	2.77	11.8%	Active	Activity (Calf thymus DNA [15]): Active
C=CCNC(=S)N/N=C\c1ccnc2ccccc12	105000 nM	10.39 ×10⁴ /M	1.44 ×10⁵ /M	970 nM	Active	Active	108		Active	3.98 ×10⁴ /M	85.5	52.42%	1230 nM	371.21%	Active	6.64	2.88%		Activity (Calf thymus DNA [15]): Active
S=C(N/N=C\c1ccnc2ccccc12)Nc1ccccc1	118000 nM	11.19 ×10⁴ /M	7.29 ×10⁴ /M	1070 nM	Active	Active	110	52.3%	Active	3.5 ×10⁴ /M	85.5	52.75%	1380 nM	33.65%	Active	3.72		Active	
S=C(N/N=C\c1ccnc2ccccc12)Nc1cccnc1	91600 nM	3.99 ×10⁴ /M	8.03 ×10⁴ /M	970 nM	Active	inactive	94.4	20.3%	Active	1.96 ×10⁵ /M	83.3	52.95%	1100 nM	493.41%	Active				fold change (FC) (Calf thymus DNA [20]): 0.89
COc1ccc(NC(=S)N/N=C\c2ccnc3ccccc23)cc1	101000 nM	9.24 ×10⁴ /M	5.44 ×10⁴ /M	990 nM	Active	Active	102		Active	1.33 ×10⁵ /M	74.6	42.61%	1360 nM	320.04%	Active	11.6	59.6%	Active	Activity (Calf thymus DNA [21]): Active
S=C(N/N=C\c1ccnc2ccccc12)Nc1ccc(Br)cc1	53500 nM	11.2 ×10⁴ /M	1.17 ×10⁵ /M	990 nM	Active	Active	54.1	10.8%	Active	7.44 ×10⁴ /M	36.2	56.43%	1480 nM	508.17%	Active	6.06			Activity (Calf thymus DNA [21]): Active
Fc1ccc(NC(=S)N/N=C\c2ccnc3ccccc23)cc1	45900 nM	5.9 ×10⁴ /M	8.4 ×10⁴ /M	1100 nM	Active	Active	41.7		Active	2.37 ×10⁵ /M	42.9	38.74%	1070 nM	237.42%	Active	3.44	15.9%		
S=C(N/N=C\c1ccnc2ccccc12)Nc1ccc(Cl)cc1	63500 nM	6.07 ×10⁴ /M	1.13 ×10⁵ /M	1070 nM	Active	Active	59.3	8.51%	Active	6.29 ×10⁴ /M	50	53.34%	1270 nM	68.97%	Active	1.88		Active	Activity (Calf thymus DNA [21]): Active
O=[N+]([O-])c1ccc(NC(=S)N/N=C\c2ccnc3ccccc23)cc1	82500 nM	3.82 ×10⁴ /M	1.03 ×10⁵ /M	810 nM	Active	inactive	102	12.9%	Active	2.51 ×10⁴ /M	62	43.48%	1330 nM	132.77%	Active	7.69			Activity (Calf thymus DNA [21]): Active
S=C(N/N=C\c1ccnc2ccccc12)Nc1cccc2ccccc12	22600 nM	6.36 ×10⁴ /M	1.13 ×10⁵ /M	880 nM	Active	Active	25.6		Active	2.54 ×10⁵ /M	18.6	53.34%	1210 nM	226.14%	Active	1.67	13.9%		
